Values after ≈ are worked out from the molar mass of the structure shown. Like-named read-outs stand apart in the source and are kept apart here.
Key:
Type in all cases: cell-based
[1] = system: E. coli strains; assay: MIC against E. coli strains (Table M7); conditions: Escherichia coli, ATCC25922, E. coli ATCC 25922
Method in brief: (§1)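 Broth dilution (CLSI standard) gave the minimum inhibitory concentrations. Resistance genotypes in the panel can be constitutive or inducible.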

[2] = system: S. aureus strains; assay: MIC against S. aureus strains (Table M7); conditions: Staphylococcus aureus
Method in brief: as §1

[3] = system: EC882 E. coli imp; assay: broth dilution MIC, E. coli EC882; conditions: Escherichia coli
Source text: (§2) We have collected MIC data for a total of 50 novel macrolides that this platform has produced against over 21 unique strains of B. subtilis, E. coli, S. aureus, S. pneumoniae, and H. influenzae, including several multidrug-resistant strains, with a special focus on macrolide resistant mechanisms (vide supra). Azithromycin was included as a control macrolide. CLSI standard procedures for broth dilution MIC determination were used. […] These genotypes can be constitutive or inducible. The finding that C4-epi (unnatural) isomers of the “azaketolide” macrolide class have enhanced activities relative to C4 natural isomers is very exciting.

[4] = system: E. faecalis strains; assay: MIC against E. faecalis strains (Table M8); conditions: Enterococcus faecalis, E. faecalis 29212
[5] = system: EC107 E. coli ATCC25922; assay: broth dilution MIC, E. coli EC107; conditions: Escherichia coli, read-out: MIC
Source text: as §2

[6] = system: A. baumannii strains; assay: MIC against A. baumannii strains (Table M8); conditions: Acinetobacter baumannii, BAA747, A. baumannii BAA747-1
[7] = system: SA101 S. aureus ATCC29213; assay: broth dilution MIC, S. aureus SA101; conditions: Staphylococcus aureus, ATCC29213, SA101 S. aureus ATCC29213; read-out: MIC
Source text: as §2

[8] = system: H. influenzae strains; assay: MIC against H. influenzae strains (Table M8); conditions: Haemophilus influenzae
Method in brief: as §1

[9] = system: S. pneumoniae strains; assay: MIC against S. pneumoniae strains (Tables M7, M8); conditions: Streptococcus pneumoniae
Source text: CLSI standard procedures for broth dilution MIC determination were used. […] These genotypes can be constitutive or inducible.

[10] = system: BS1723 B. subtilis BS168 WT wild type; assay: broth dilution MIC, B. subtilis BS1723; conditions: Bacillus subtilis, BS1723 B. subtilis BS168 WT wild type; read-out: MIC
Source text: as §2

[11] = system: K. pneumoniae strains; assay: MIC against K. pneumoniae strains (Table M8); conditions: Klebsiella pneumoniae, K. pneumoniae 10031
[12] = system: BS1725 B. subtilis ermC; assay: broth dilution MIC, B. subtilis BS1725; conditions: Bacillus subtilis
Source text: as §2

[13] = system: EC878 E. coli tolC; assay: broth dilution MIC, E. coli EC878; conditions: Escherichia coli
Source text: as §2

[14] = system: E. coli (MC4100); assay: MIC, E. coli MC4100
Source text: as §2

[15] = system: S. aureus (Newman, clinical isolate); assay: MIC, S. aureus Newman; conditions: Staphylococcus aureus
Source text: as §2

[16] = ATCC29213, S. aureus ATCC 29213, read-out: MIC S. aureus (ATCC 29213)
[17] = S. aureus 506, read-out: MIC S. aureus (506)
[18] = S. aureus 1708, read-out: MIC S. aureus (1708)
[19] = USA300, S. aureus USA300, read-out: MIC S. aureus (USA300)
[20] = H. influenzae 49247, read-out: MIC H. influenzae (49247)
[21] = H. influenzae 49766, read-out: MIC H. influenzae (49766)
[22] = S. pneumoniae 160, read-out: MIC S. pneumonae (160)
[23] = S. pneumoniae 1509, read-out: MIC S. pneumoniae (1509)
[24] = S. pneumoniae 1533, read-out: MIC S. pneumoniae (1533)
[25] = S. pneumoniae 1537, read-out: MIC S. pneumoniae (1537)
[26] = S. pneumoniae 49619, read-out: MIC S. pneumoniae (49619)

| SMILES | MIC [1] | MIC [2, 16] | MIC [2, 17] | MIC [2, 18] | MIC [2, 19] | MIC [3] | MIC [4] | MIC [5] | MIC [6] | MIC [7] | MIC [8, 20] | MIC [8, 21] | MIC [9, 22] | MIC [9, 23] | MIC [9, 24] | MIC [9, 25] | MIC [9, 26] | MIC [10] | MIC [11] | MIC ([12]; BS1725 B. subtilis ermC (+ery)) | also measured |
| --- | --- | --- | --- | --- | --- | --- | --- | --- | --- | --- | --- | --- | --- | --- | --- | --- | --- | --- | --- | --- | --- |
| CC[C@H]1OC(=O)[C@H](C)C(=O)C[C@@H](O[C@@H]2OC(C)CC(N(C)C)C2O)[C@](C)(OC)C[C@@H](C)CN[C@H](C)[C@H]2N(CCCCn3cc(-c4cccc(N)c4)nn3)C(=O)O[C@]12C (some centres unmarked) [FSM-10781] | 32 µg/mL (≈ 39.3 µM) | > 32 µg/mL | > 32 µg/mL | > 32 µg/mL | > 32 µg/mL | 0.25 µg/mL (≈ 0.307 µM) | 8 µg/mL (≈ 9.83 µM) | 16 µg/mL (≈ 19.7 µM) | 32 µg/mL (≈ 39.3 µM) | > 32 µg/mL | 1 µg/mL (≈ 1.23 µM) | 8 µg/mL (≈ 9.83 µM) | 2 µg/mL (≈ 2.46 µM) | > 32 µg/mL | > 32 µg/mL | > 32 µg/mL | 8 µg/mL (≈ 9.83 µM) | > 32 µg/mL | 8 µg/mL (≈ 9.83 µM) | > 32 µg/mL | MIC ([12]; BS1725 B. subtilis ermC (−ery)): > 32 µg/mL; MIC [13]: 1 µg/mL (≈ 1.23 µM) |
| CC[C@H]1OC(=O)[C@H](C)C(=O)[C@H](C)[C@@H](O[C@@H]2OC(C)CC(N(C)C)C2O)[C@](C)(OC)C[C@@H](C)CN[C@H](C)[C@H]2N(CCCCn3cc(-c4nccs4)nn3)C(=O)O[C@]12C (some centres unmarked) [FSM-20708] | 4 µg/mL (≈ 4.88 µM) | 2 µg/mL (≈ 2.44 µM) | > 32 µg/mL | 2 µg/mL (≈ 2.44 µM) | 2 µg/mL (≈ 2.44 µM) | 0.0625 µg/mL (≈ 0.0762 µM) | 0.5 µg/mL (≈ 0.61 µM) | 8 µg/mL (≈ 9.76 µM) | 16 µg/mL (≈ 19.5 µM) | 2 µg/mL (≈ 2.44 µM) | 0.25 µg/mL (≈ 0.305 µM) | 2 µg/mL (≈ 2.44 µM) | 0.125 µg/mL (≈ 0.152 µM) | 4 µg/mL (≈ 4.88 µM) | > 32 µg/mL | > 32 µg/mL | 0.5 µg/mL (≈ 0.61 µM) | 1 µg/mL (≈ 1.22 µM) | 2 µg/mL (≈ 2.44 µM) | 16 µg/mL (≈ 19.5 µM) | MIC [13]: 1 µg/mL (≈ 1.22 µM) |
| CC[C@H]1OC(=O)[C@H](C)C(=O)[C@H](C)[C@@H](O[C@@H]2OC(C)CC(N(C)C)C2O)[C@](C)(OC)C[C@@H](C)CN[C@H](C)[C@H]2N(CCCCn3cc(-c4cccnn4)nn3)C(=O)O[C@]12C (some centres unmarked) [FSM-20710] | 8 µg/mL (≈ 9.82 µM) | 2 µg/mL (≈ 2.45 µM) | > 32 µg/mL | 2 µg/mL (≈ 2.45 µM) | 4 µg/mL (≈ 4.91 µM) | 0.0625 µg/mL (≈ 0.0767 µM) | 0.5 µg/mL (≈ 0.613 µM) | 8 µg/mL (≈ 9.82 µM) | 16 µg/mL (≈ 19.6 µM) | 2 µg/mL (≈ 2.45 µM) | 0.5 µg/mL (≈ 0.613 µM) | 2 µg/mL (≈ 2.45 µM) | 0.5 µg/mL (≈ 0.613 µM) | 16 µg/mL (≈ 19.6 µM) | > 32 µg/mL | > 32 µg/mL | 0.5 µg/mL (≈ 0.613 µM) | 2 µg/mL (≈ 2.45 µM) | 4 µg/mL (≈ 4.91 µM) | 32 µg/mL (≈ 39.3 µM) | MIC [13]: 1 µg/mL (≈ 1.23 µM) |
| CC[C@H]1OC(=O)[C@H](C)C(=O)[C@H](C)[C@@H](O[C@@H]2OC(C)CC(N(C)C)C2O)[C@](C)(OC)C[C@@H](C)CN[C@H](C)[C@H]2N(CCCCn3cc(-c4nc5ccccc5s4)nn3)C(=O)O[C@]12C (some centres unmarked) [FSM-20711] | 16 µg/mL (≈ 18.4 µM) | 4 µg/mL (≈ 4.6 µM) | > 32 µg/mL | 4 µg/mL (≈ 4.6 µM) | 4 µg/mL (≈ 4.6 µM) | 0.0312 µg/mL (≈ 0.0359 µM) | 1 µg/mL (≈ 1.15 µM) | 16 µg/mL (≈ 18.4 µM) | > 32 µg/mL | 2 µg/mL (≈ 2.3 µM) | 1 µg/mL (≈ 1.15 µM) | 8 µg/mL (≈ 9.19 µM) | 0.125 µg/mL (≈ 0.144 µM) | > 32 µg/mL | > 32 µg/mL | > 32 µg/mL | 0.5 µg/mL (≈ 0.575 µM) | 2 µg/mL (≈ 2.3 µM) | 4 µg/mL (≈ 4.6 µM) | 32 µg/mL (≈ 36.8 µM) | MIC [13]: 0.5 µg/mL (≈ 0.575 µM) |
| CC[C@H]1OC(=O)[C@H](C)C(=O)[C@H](C)[C@@H](O[C@@H]2OC(C)CC(N(C)C)C2O)[C@](C)(OC)C[C@@H](C)CN(C(C)=O)[C@H](C)[C@H]2N(CCCCn3cc(-c4cccc(N)c4)nn3)C(=O)O[C@]12C (some centres unmarked) [FSM-20767] | > 32 µg/mL | 16 µg/mL (≈ 18.4 µM) | > 32 µg/mL | 32 µg/mL (≈ 36.8 µM) | 32 µg/mL (≈ 36.8 µM) | 1 µg/mL (≈ 1.15 µM) | 4 µg/mL (≈ 4.6 µM) | > 32 µg/mL | > 32 µg/mL | 16 µg/mL (≈ 18.4 µM) | 8 µg/mL (≈ 9.19 µM) | 16 µg/mL (≈ 18.4 µM) | 2 µg/mL (≈ 2.3 µM) | > 32 µg/mL | > 32 µg/mL | > 32 µg/mL | 0.5 µg/mL (≈ 0.575 µM) | 16 µg/mL (≈ 18.4 µM) | 32 µg/mL (≈ 36.8 µM) | > 32 µg/mL | MIC ([12]; BS1725 B. subtilis ermC (−ery)): 8 µg/mL (≈ 9.19 µM); MIC [13]: 4 µg/mL (≈ 4.6 µM) |
| CC[C@H]1OC(=O)[C@H](C)C(=O)[C@H](C)[C@@H](O[C@@H]2OC(C)CC(N(C)C)C2O)[C@](C)(OC/C=C/c2cnc3ccccc3c2)C[C@@H](C)CN[C@H](C)[C@H]2NC(=O)O[C@@]21C (some centres unmarked) [FSM-20919] | 4 µg/mL (≈ 5.22 µM) | 0.25 µg/mL (≈ 0.326 µM) | > 32 µg/mL | 0.25 µg/mL (≈ 0.326 µM) | 0.5 µg/mL (≈ 0.652 µM) | – | 0.5 µg/mL (≈ 0.652 µM) | – | 16 µg/mL (≈ 20.9 µM) | – | 1 µg/mL (≈ 1.3 µM) | 4 µg/mL (≈ 5.22 µM) | ≤ 0.0625 µg/mL | 0.5 µg/mL (≈ 0.652 µM) | 32 µg/mL (≈ 41.7 µM) | 32 µg/mL (≈ 41.7 µM) | ≤ 0.0625 µg/mL | – | 16 µg/mL (≈ 20.9 µM) | – | MIC ([2]; S. aureus 183, read-out: MIC S. aureus (183)): > 32 µg/mL; MIC ([14]; Escherichia coli, round 1, read-out: MIC): 2 µg/mL (≈ 2.61 µM); MIC ([14]; round 2): 2 µg/mL (≈ 2.61 µM); MIC ([15]; S. aureus (Neuman, clinical isolate), round 2): 0.5 µg/mL (≈ 0.652 µM); MIC ([15]; S. aureus (Newman, clinical isolate), round 1): 0.25 µg/mL (≈ 0.326 µM) |
| CC[C@H]1OC(=O)[C@H](C)C(=O)C[C@@H](O[C@@H]2OC(C)CC(N(C)C)C2O)[C@@](C)(OC)C[C@@H](C)CN[C@H](C)[C@H]2N(CCCCn3cc(-c4cccc(N)c4)nn3)C(=O)O[C@]12C (some centres unmarked) [FSM-30502] | > 32 µg/mL | > 32 µg/mL | > 32 µg/mL | > 32 µg/mL | > 32 µg/mL | > 32 µg/mL | > 32 µg/mL | > 32 µg/mL | > 32 µg/mL | > 32 µg/mL | 16 µg/mL (≈ 19.7 µM) | > 32 µg/mL | > 32 µg/mL | > 32 µg/mL | > 32 µg/mL | > 32 µg/mL | > 32 µg/mL | > 32 µg/mL | > 32 µg/mL | > 32 µg/mL | MIC ([12]; BS1725 B. subtilis ermC (−ery)): > 32 µg/mL; MIC [13]: > 32 µg/mL |

Reference: patent US9982005B2, “Macrolides and methods of their preparation and use” (President and Fellows of Harvard College, priority 2013, dated 2018)
